Results: US12378224B2 (Dong-A Socio Holdings Co., Ltd., priority 2016, dated 2025)

target: human MER (528-end) (Homo sapiens (Human), UniProt Q12866); assay: HTRF Kinase Activity Biochemical Assay (KinEASE-TK); details: 10 uM ATP
Description: For the SAR (structure-activity relationship) and compound screening, HTRF (Homogeneous Time Resolved Fluorescence) kinase activity assay was employed for all MER, AXL and TYRO3 kinases using Cisbio HTRF® KinEASE™-TK kit (Cisbio, USA). The kit includes biotin-labeled TK substrate, streptavidin-XL665, Eu3+-cryptate-labeled TK antibody and HTRF® Detection buffer. There are two main steps in the kinase assay: kinase reaction and detection of phosphorylated substrate. The reaction was carried out in white low volume 384-well plate (Corning, USA) with 25 nL compound in dimethyl sulfoxide in each well. […] Then the reaction was stopped after 1 hour incubation at room temperature by adding 5 uL of HTRF® Detection buffer which also contains 0.375 nM Eu3+-cryptate-labeled TK antibody and 0.062 uM streptavidin-XL665(SA-XL665) to allow for detection of the phosphorylated peptide product. After 1 h incubation at room temperature, the fluorescence intensity was measured with Envision™ plate reader (PerkinElmer, USA). Upon excitation at 340 nm by UV, the energy from Eu3+ donor of the antibody is transferred to the FRET acceptor XL665, and […] emits light at 665 nm. The level of kinase activity was quantified by the HTRF ratio that calculated from the intensity of emission at 665 nm and emission at 620 nm (fluorescence intensity @ 665 nm/fluorescence intensity @ 620 nm×10,000). The recombinant protein of human MER (528-end) was purchased from Carnabio, Japan. The recombinant human AXL (473-end) and TYRO3 (455-end) were purchased from SignalChem, Canada.

Chain of human MER (528-end) (Q12866 528-999 limits assumed): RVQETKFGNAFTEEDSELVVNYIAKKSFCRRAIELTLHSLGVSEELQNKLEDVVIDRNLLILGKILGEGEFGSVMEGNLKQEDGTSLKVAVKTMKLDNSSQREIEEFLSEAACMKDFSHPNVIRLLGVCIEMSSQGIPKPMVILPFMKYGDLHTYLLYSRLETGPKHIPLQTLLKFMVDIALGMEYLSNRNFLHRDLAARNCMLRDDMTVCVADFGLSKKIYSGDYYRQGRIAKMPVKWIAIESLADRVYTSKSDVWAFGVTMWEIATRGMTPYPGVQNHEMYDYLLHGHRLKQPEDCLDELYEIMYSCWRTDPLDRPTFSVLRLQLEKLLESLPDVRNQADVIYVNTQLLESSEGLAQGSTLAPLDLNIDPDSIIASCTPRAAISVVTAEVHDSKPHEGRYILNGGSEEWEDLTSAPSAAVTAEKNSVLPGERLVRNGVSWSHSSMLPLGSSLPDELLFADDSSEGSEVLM

| Compound | IC50 [nM] |
| --- | --- |
| 2-amino-N—((R)-1-(3-(((R)-2-(hydroxymethyl)pyrrolidin-1-yl)methyl)-[1,1′-biphenyl]-3-carbonyl)pyrrolidin-3-yl)-5-(1-methyl-1H-pyrazol-4-yl)nicotinamide [Example 462] | > 1000 |
| Cc1cc(C)cc(NC(=O)N2CC[C@@H](NC(=O)c3cc(-c4cnn(C)c4)cnc3N)C2)c1 [Example 4, (R)-2-amino-N-(1-((3,5-dimethylphenyl)carbamoyl)pyrrolidin-3-yl)-5-(1-methyl-1H-pyrazol-4-yl)nicotinamide] | > 1000 |
| Cn1cc(-c2cnc(N)c(C(=O)N[C@@H]3CCN(C(=O)Nc4cc(C(F)(F)F)cc(C(F)(F)F)c4)C3)c2)cn1 [Example 5, (R)-2-amino-N-(1-((3,5-bis(trifluoromethyl)phenyl)carbamoyl)pyrrolidin-3-yl)-5-(1-methyl-1H-pyrazol-4-yl)nicotinamide] | > 1000 |
| Cn1cc(-c2cnc(N)c(C(=O)N[C@@H]3CCN(C(=O)Nc4ccc(C(F)(F)F)cc4)C3)c2)cn1 [Example 6, (R)-2-amino-5-(1-methyl-1H-pyrazol-4-yl)-N-(1-((4-(trifluoromethyl)phenyl)carbamoyl)pyrrolidin-3-yl)nicotinamide] | > 1000 |
| CC(C)NC(=O)N1CC[C@@H](NC(=O)c2cc(-c3cnn(C)c3)cnc2N)C1 [Example 8, (R)-2-amino-N-(1-(isopropylcarbamoyl)pyrrolidin-3-yl)-5-(1-methyl-1H-pyrazol-4-yl)nicotinamide] | > 1000 |
| Cn1cc(-c2cnc(N)c(C(=O)N[C@@H]3CCN(C(=O)Nc4ccn(C)n4)C3)c2)cn1 [Example 12, (R)-2-amino-N-(1-((1-methyl-1H-pyrazol-3-yl)carbamoyl)pyrrolidin-3-yl)-5-(1-methyl-1H-pyrazol-4-yl)nicotinamide] | > 1000 |
| Cn1cc(-c2cnc(N)c(C(=O)N[C@@H]3CCN(C(=O)Nc4cccc(Oc5ccccc5)c4)C3)c2)cn1 [Example 17, (R)-2-amino-5-(1-methyl-1H-pyrazol-4-yl)-N-(1-((3-phenoxyphenyl)carbamoyl)pyrrolidin-3-yl)nicotinamide] | 10 to 100 |
| Cn1cc(-c2cnc(N)c(C(=O)N[C@@H]3CCN(C(=O)Nc4ccccc4Oc4ccccc4)C3)c2)cn1 [Example 18, (R)-2-amino-5-(1-methyl-1H-pyrazol-4-yl)-N-(1-((2-phenoxyphenyl)carbamoyl)pyrrolidin-3-yl)nicotinamide] | > 1000 |
| Cn1cc(-c2cncc(C(=O)N[C@@H]3CCN(C(=O)Nc4cc(Cl)cc(Cl)c4)C3)c2)cn1 [Example 22, (R)—N-(1-((3,5-dichlorophenyl)carbamoyl)pyrrolidin-3-yl)-5-(1-methyl-1H-pyrazol-4-yl)nicotinamide] | > 1000 |
| Cn1cc(-c2cnc(N)c(C(=O)N[C@@H]3CCN(C(=O)Nc4cccc(CN5CCOCC5)c4)C3)c2)cn1 [Example 26, (R)-2-amino-5-(1-methyl-1H-pyrazol-4-yl)-N-(1-((3-(morpholinomethyl)phenyl)carbamoyl)pyrrolidin-3-yl)nicotinamide] | > 1000 |
| Cn1cc(-c2cnc(N)c(C(=O)N[C@@H]3CCN(C(=O)N4CCc5c(N)cccc5C4)C3)c2)cn1 [Example 28, (R)-2-amino-N-(1-(5-amino-1,2,3,4-tetrahydroisoquinoline-2-carbonyl)pyrrolidin-3-yl)-5-(1-methyl-1H-pyrazol-4-yl)nicotinamide] | > 1000 |
| Cn1cc(-c2cnc(N)c(C(=O)N[C@@H]3CCN(C(=O)N4CCc5cccc(Br)c5C4)C3)c2)cn1 [Example 29, (R)-2-amino-N-(1-(8-bromo-1,2,3,4-tetrahydroisoquinoline-2-carbonyl)pyrrolidin-3-yl)-5-(1-methyl-1H-pyrazol-4-yl)nicotinamide] | > 1000 |
| Cn1cc(-c2cnc(N)c(C(=O)N[C@@H]3CCN(C(=O)NC4CCCCC4)C3)c2)cn1 [Example 30, (R)-2-amino-N-(1-(cyclohexylcarbamoyl)pyrrolidin-3-yl)-5-(1-methyl-1H-pyrazol-4-yl)nicotinamide] | 100 to 1000 |
| Cn1cc(-c2cnc(N)c(C(=O)N[C@@H]3CCN(C(=O)N[C@@H]4CCCC[C@@H]4O)C3)c2)cn1 [Example 31, 2-amino-N—((R)-1-(((1R,2S)-2-hydroxycyclohexyl)carbamoyl)pyrrolidin-3-yl)-5-(1-methyl-1H-pyrazol-4-yl)nicotinamide] | > 1000 |
| Cn1cc(-c2cnc(N)c(C(=O)N[C@@H]3CCN(C(=O)N[C@@H]4CCCC[C@H]4O)C3)c2)cn1 [Example 32, 2-amino-N—((R)-1-(((1R,2R)-2-hydroxycyclohexyl)carbamoyl)pyrrolidin-3-yl)-5-(1-methyl-1H-pyrazol-4-yl)nicotinamide] | > 1000 |
| Nc1ncc(-c2ccc(CN3CCOCC3)cc2)cc1C(=O)N[C@@H]1CCN(C(=O)Nc2cccc(-c3ccccc3)c2)C1 [Example 38, (R)—N-(1-([1,1′-biphenyl]-3-ylcarbamoyl)pyrrolidin-3-yl)-2-amino-5-(4-(morpholinomethyl)phenyl)nicotinamide] | 10 to 100 |
| Cn1cc(-c2cnc(N)c(C(=O)N[C@@H]3CCN(C(=O)N[C@H]4CCC[C@@H]4OCc4ccccc4)C3)c2)cn1 [Example 40, 2-amino-N—((R)-1-(((1S,2S)-2-(benzyloxy)cyclopentyl)carbamoyl)pyrrolidin-3-yl)-5-(1-methyl-1H-pyrazol-4-yl)nicotinamide] | > 1000 |
| Cn1cc(-c2cnc(N)c(C(=O)N[C@@H]3CCN(C(=O)NC4CCC(OCc5ccccc5)C4)C3)c2)cn1 (stereo partly drawn) [Example 41, 2-amino-N-((3R)-1-((3-(benzyloxy)cyclopentyl)carbamoyl)pyrrolidin-3-yl)-5-(1-methyl-1H-pyrazol-4-yl)nicotinamide] | > 1000 |
| Cn1cc(-c2cnc(N)c(C(=O)N[C@@H]3CCN(C(=S)Nc4ccc(F)cc4)C3)c2)cn1 [Example 42, (R)-2-amino-N-(1-((4-fluorophenyl)carbamothioyl)pyrrolidin-3-yl)-5-(1-methyl-1H-pyrazol-4-yl)nicotinamide] | > 1000 |
| Cn1cc(-c2cnc(N)c(C(=O)N[C@@H]3CCN(C(=S)NCc4ccccc4)C3)c2)cn1 [Example 43, (R)-2-amino-N-(1-(benzylcarbamothioyl)pyrrolidin-3-yl)-5-(1-methyl-1H-pyrazol-4-yl)nicotinamide] | > 1000 |

Other lines, results leading:

| IC50 [nM] | Compound |
| --- | --- |
| > 1000 | Cn1cc(-c2cnc(N)c(C(=O)N[C@@H]3CCN(C(=O)Nc4cccc(F)c4)C3)c2)cn1 [Example 2, (R)-2-amino-N-(1-((3-fluorophenyl)carbamoyl)pyrrolidin-3-yl)-5-(1-methyl-1H-pyrazol-4-yl)nicotinamide] |
| > 1000 | Cn1cc(-c2cnc(N)c(C(=O)N[C@@H]3CCN(C(=O)Nc4ccc(F)c(F)c4)C3)c2)cn1 [Example 3, (R)-2-amino-N-(1-((3,4-difluorophenyl)carbamoyl)pyrrolidin-3-yl)-5-(1-methyl-1H-pyrazol-4-yl)nicotinamide] |
| > 1000 | Cn1cc(-c2cnc(N)c(C(=O)N[C@@H]3CCN(C(=O)Nc4cccc(Cl)c4)C3)c2)cn1 [Example 14, (R)-2-amino-N-(1-((3-chlorophenyl)carbamoyl)pyrrolidin-3-yl)-5-(1-methyl-1H-pyrazol-4-yl)nicotinamide] |
| > 1000 | CC(C)Oc1cccc(NC(=O)N2CC[C@@H](NC(=O)c3cc(-c4cnn(C)c4)cnc3N)C2)c1 [Example 16, (R)-2-amino-N-(1-((3-isopropoxyphenyl)carbamoyl)pyrrolidin-3-yl)-5-(1-methyl-1H-pyrazol-4-yl)nicotinamide] |
| > 1000 | CCc1cccc(NC(=O)N2CC[C@@H](NC(=O)c3cc(-c4cnn(C)c4)cnc3N)C2)c1 [Example 19, (R)-2-amino-N-(1-((3-ethylphenyl)carbamoyl)pyrrolidin-3-yl)-5-(1-methyl-1H-pyrazol-4-yl)nicotinamide] |
| > 1000 | Cn1cc(-c2cnc(N)c(C(=O)N[C@@H]3CCN(C(=O)Nc4ccccc4Cl)C3)c2)cn1 [Example 21, (R)-2-amino-N-(1-((2-chlorophenyl)carbamoyl)pyrrolidin-3-yl)-5-(1-methyl-1H-pyrazol-4-yl)nicotinamide] |
| 100 to 1000 | Cn1cc(-c2cnc(N)c(C(=O)N[C@@H]3CCN(C(=O)Nc4cccc(-c5ccccc5)c4)C3)c2)cn1 [Example 23, (R)—N-(1-([1,1′-biphenyl]-3-ylcarbamoyl)pyrrolidin-3-yl)-2-amino-5-(1-methyl-1H-pyrazol-4-yl)nicotinamide] |
| > 1000 | Cn1cc(-c2cnc(N)c(C(=O)N[C@@H]3CCN(C(=O)Nc4ccc(Br)cc4)C3)c2)cn1 [Example 25, (R)-2-amino-N-(1-((4-bromophenyl)carbamoyl)pyrrolidin-3-yl)-5-(1-methyl-1H-pyrazol-4-yl)nicotinamide] |
| > 1000 | Cn1cc(-c2cnc(N)c(C(=O)N[C@H]3CCN(C(=O)Nc4ccccc4)C3)c2)cn1 [Example 27, (S)-2-amino-5-(1-methyl-1H-pyrazol-4-yl)-N-(1-(phenylcarbamoyl)pyrrolidin-3-yl)nicotinamide] |
| 100 to 1000 | Cn1cc(-c2cnc(N)c(C(=O)N[C@@H]3CCN(C(=O)Nc4cc(Cl)cc(Cl)c4)C3)c2)cn1 [Example 34, (R)-2-amino-N-(1-((3,5-dichlorophenyl)carbamoyl)pyrrolidin-3-yl)-5-(1-methyl-1H-pyrazol-4-yl)nicotinamide] |
